System: type I interferon responses
Assay: not given
Conditions: both in vitro and in vivo; cited from earlier work

Structure (SMILES) | type I interferon responses
C[C@@H](COCCC(=O)N1CCN(c2ncc(C(F)(F)F)cn2)CC1)Nc1cn[nH]c(=O)c1C(F)(F)F [RBN-2397] | restored type I interferon responses

System: CT26 colorectal cancer cells
Assay: Induction of IFNβ in cancer cell supernatants (mouse IFNβ ELISA), CT26
Type: cell-based, murine
Conditions: 10 μM compound 177 alone or in combination with chemotherapeutic agents, 24 hours, FIG. 1
Experimental: (§1) Selected compounds were also tested for their ability to induce type I interferon (interferon β, IFNβ) production in cancer cells as a cell-based measure of PARP7 inhibition and its effects on stimulating the STING pathway signalling. […] Such data highlight the therapeutic utility of combining PARP7 inhibitors with chemotherapy or other agents that can induce aberrant cytosolic nucleic acids in order to further enhance an anti-tumour immune response.
(§2) CT26 and MC38 cells were seeded in 96-well microplates each at a density of 30,000 cells per well. Following overnight incubation, cells were treated with either DMSO, 10 μM compound 177, or various chemotherapeutic agents (final DMSO concentration of 0.2% v/v). Cells were also treated with 10 μM compound 177 in combination with various chemotherapeutic agents. After 24 hours, IFNβ was measured from cell supernatants using a sandwich enzyme linked immunosorbent assay (ELISA) assay kit (PBL Assay Sciences, catalogue number 42410-2) according to manufacturer's instructions.

Structure (SMILES) | induction of IFNβ in cell supernatants
CC(COCCC(=O)N1CCN(c2ncc(C(F)(F)F)cn2)CC1)n1nc(C(F)(F)F)c2c(=O)[nH]ncc21 (single isomer, unassigned) [Compound 177, 1-(1-(3-oxo-3-(4-(5-(trifluoromethyl)pyrimidin-2-yl)piperazin-1-yl)propoxy)propan-2-yl)-3-(trifluoromethyl)-1,5-dihydro-4H-pyrazolo[3,4-d]pyridazin-4-one] | induction of IFNβ

System: tumour
Assay: not given
Conditions: animal models; cited from earlier work

Structure (SMILES) | tumour regression and specific anti-tumour immunity
C[C@@H](COCCC(=O)N1CCN(c2ncc(C(F)(F)F)cn2)CC1)Nc1cn[nH]c(=O)c1C(F)(F)F [RBN-2397] | tumour regression

System: cancer cell lines with high baseline expression of interferon stimulated genes
Assay: not given
Conditions: cited from earlier work

Structure (SMILES) | inhibition of proliferation
C[C@@H](COCCC(=O)N1CCN(c2ncc(C(F)(F)F)cn2)CC1)Nc1cn[nH]c(=O)c1C(F)(F)F [RBN-2397] | potently inhibited proliferation

System: MC38 colorectal cancer cells
Assay: Induction of IFNβ in cancer cell supernatants (mouse IFNβ ELISA), MC38
Type: cell-based, murine
Conditions: 10 μM compound 177 alone or in combination with chemotherapeutic agents, 24 hours, FIG. 1
Experimental: as §1, §2

Structure (SMILES) | induction of IFNβ in cell supernatants
CC(COCCC(=O)N1CCN(c2ncc(C(F)(F)F)cn2)CC1)n1nc(C(F)(F)F)c2c(=O)[nH]ncc21 (single isomer, unassigned) [Compound 177, 1-(1-(3-oxo-3-(4-(5-(trifluoromethyl)pyrimidin-2-yl)piperazin-1-yl)propoxy)propan-2-yl)-3-(trifluoromethyl)-1,5-dihydro-4H-pyrazolo[3,4-d]pyridazin-4-one] | induction of IFNβ

Biological target: T1, recombinant human Flag-tagged PARP7 (amino acids 456-657) (Homo sapiens, UniProt Q7Z3E1)
T1 construct: recombinant human Flag-tagged PARP7 (amino acids 456-657)
T1 sequence (Q7Z3E1 456-657): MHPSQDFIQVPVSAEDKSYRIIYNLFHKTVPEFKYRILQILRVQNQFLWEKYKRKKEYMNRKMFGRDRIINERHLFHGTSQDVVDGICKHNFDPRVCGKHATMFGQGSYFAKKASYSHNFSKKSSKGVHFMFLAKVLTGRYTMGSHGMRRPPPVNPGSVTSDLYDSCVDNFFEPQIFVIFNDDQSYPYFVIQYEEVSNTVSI
Assay: PARP7 biochemical DELFIA assay (auto-MARylation)
Conditions: DELFIA readout, IC50 class
Outline: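 Flag-PARP7 (456-657), 12.5-37.5 nM stock, captured on anti-FLAG wells, preincubated 30 min with compound, then auto-MARylated with biotin-NAD+ (15 μM stock) in HEPES pH 7.5/NaCl/DTT/BSA/Tween for 2-3 h at room temperature. NAD+ quench; Eu-streptavidin DELFIA read, Ex337/Em620 nm.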

Structure (SMILES) | IC50
O=C(CCOCCn1nc(C(F)(F)F)c2c(=O)[nH]ncc21)N1CCN(c2nc3ccc(F)cc3o2)CC1 [Compound 183] | ≤ 0.1 µM
Cc1c(C(F)(F)F)c2c(=O)[nH]ncc2n1C(C)COCCC(=O)N1CCN(c2ncc(C(F)(F)F)cn2)CC1 (stereo not drawn) [Compound 475] | ≤ 0.1 µM
CC(COCCC(=O)N1CCN(c2ncc(C(F)(F)F)cn2)CC1)c1ccc(Cl)c2c(=O)[nH]ncc12 (stereo not drawn) [Compound 400] | ≤ 0.1 µM
Cn1c(N2CCN(C(=O)CCOCCc3cccc4c(=O)[nH]ncc34)CC2)nc2ccccc21 [Compound 214] | ≤ 0.1 µM
Cn1c(N2CCN(C(=O)CCOCCn3nc(C(F)(F)F)c4c(=O)[nH]ncc43)CC2)nc2ccccc21 [Compound 195] | ≤ 0.1 µM
CC(COCCC(=O)N1CCN(c2ncc(C#N)cn2)CC1)n1cc(C(F)(F)F)c2c(=O)[nH]ncc21 (single isomer, unassigned) [Compound 464] | ≤ 0.1 µM
O=C1NCCc2c(Cc3cccc(C(=O)N4CCN(C(=O)C5CC5)CC4)c3)cccc21 [Compound 21] | 1 to 10 µM
CC(COCC(=O)N(C)C1CCN(c2ncc(C(F)(F)F)cn2)CC1)n1nc(C(F)(F)F)c2c(=O)[nH]ncc21 (single isomer, unassigned) [Compound 460, N-methyl-2-(2-(4-oxo-3-(trifluoromethyl)-4,5-dihydro-1H-pyrazolo[3,4-d]pyridazin-1-yl)propoxy)-N-(1-(5-(trifluoromethyl)pyrimidin-2-yl)piperidin-4-yl) acetamide] | ≤ 0.1 µM
Cc1nn(C(C)COCCC(=O)N2CCN(c3ncc(C#N)cn3)CC2)c2cn[nH]c(=O)c12 (single isomer, unassigned) [Compound 263] | ≤ 0.1 µM
CC(CCOCC(=O)N1CCN(c2ncc(C#N)cn2)CC1)n1nc(C(F)(F)F)c2c(=O)[nH]ncc21 (single isomer, unassigned) [Compound 496] | ≤ 0.1 µM
CC(CCOCC(=O)N1CCN(c2ncc(C#N)cn2)CC1)n1nc(C(F)(F)F)c2c(=O)[nH]ncc21 (single isomer, unassigned) [Compound 497] | ≤ 0.1 µM
CC(COCCC(=O)N1CCN(c2ccc(Cl)cn2)CC1)n1cc(C(F)(F)F)c2c(=O)[nH]ncc21 (single isomer, unassigned) [Compound 375] | ≤ 0.1 µM
O=C(CCOCCn1cc(C(F)(F)F)c2c(=O)[nH]ncc21)N1CCN(c2ncc(C(F)(F)F)cn2)CC1 [Compound 131, 1-(2-(3-oxo-3-(4-(5-(trifluoromethyl)pyrimidin-2-yl)piperazin-1-yl)propoxy)ethyl)-3-(trifluoromethyl)-1,5-dihydro-4H-pyrrolo[2,3-d]pyridazin-4-one] | ≤ 0.1 µM
CC1(C)CN(C(=O)CCOCCn2cc(C(F)(F)F)c3c(=O)[nH]ncc32)CCN1c1ncc(C(F)(F)F)cn1 [Compound 358] | ≤ 0.1 µM
CC(C)c1cn(CCOCCC(=O)N2CCN(c3ncc(C(F)(F)F)cn3)CC2)c2cn[nH]c(=O)c12 [Compound 150] | ≤ 0.1 µM
CC(COCCC(=O)N1CCN(c2cc(C(F)(F)F)[nH]n2)CC1)n1nc(C(F)(F)F)c2c(=O)[nH]ncc21 (stereo not drawn) [Compound 489] | ≤ 0.1 µM

Second part, the compound after the results:

IC50 | Structure (SMILES)
≤ 0.1 µM | CC(COCCC(=O)N1CCN(c2ncc(C(F)(F)F)cn2)CC1)n1nc(C(F)(F)F)c2c(=O)[nH]ncc21 (single isomer, unassigned) [Compound 177, 1-(1-(3-oxo-3-(4-(5-(trifluoromethyl)pyrimidin-2-yl)piperazin-1-yl)propoxy)propan-2-yl)-3-(trifluoromethyl)-1,5-dihydro-4H-pyrazolo[3,4-d]pyridazin-4-one]
≤ 0.1 µM | CC(COCCC(=O)N1CCN(c2ncc(Cl)cn2)CC1)n1cc(C(F)F)c2c(=O)[nH]ncc21 (stereo not drawn) [Compound 450]
1 to 10 µM | O=C(CCOCCn1ncc2c(=O)[nH]ncc21)N1CCN(c2ccc(C(F)(F)F)cc2)C(=O)C1 [Compound 337]
≤ 0.1 µM | Cc1cn(C(C)COCCC(=O)N2CCN(c3ncc(C(F)(F)F)cn3)CC2)c2cn[nH]c(=O)c12 (stereo not drawn) [Compound 152]
≤ 0.1 µM | CC(COCCC(=O)N1CCN(c2ncc(C(F)F)cn2)CC1)n1nc(C(F)(F)F)c2c(=O)[nH]ncc21 (stereo not drawn) [Compound 264]
≤ 0.1 µM | CN(C(=O)COCCn1nc(C(F)(F)F)c2c(=O)[nH]ncc21)C1CCN(c2ncc(C(F)(F)F)cn2)CC1 [Compound 317, N-methyl-2-(2-(4-oxo-3-(trifluoromethyl)-4,5-dihydro-1H-pyrazolo[3,4-d]pyridazin-1-yl)ethoxy)-N-(1-(5-(trifluoromethyl)pyrimidin-2-yl)piperidin-4-yl)acetamide]
≤ 0.1 µM | N#Cc1ccc2nc(N3CCN(C(=O)CCOCCn4cc(C(F)(F)F)c5c(=O)[nH]ncc54)CC3)oc2c1 [Compound 362]
≤ 0.1 µM | O=C(CCOCCn1nc(C(F)(F)F)c2c(=O)[nH]ncc21)N1CCN(c2ccc(C3COC3)cn2)CC1 [Compound 295]
≤ 0.1 µM | CC1(C)CN(c2ncc(C(F)(F)F)cn2)CCN1C(=O)CCOCCn1cc(C(F)(F)F)c2c(=O)[nH]ncc21 [Compound 378]
